Our source for the stability in solution values is patent publication US20060051291A1, “Synthesis of radiolabeled sugar metal complexes” (priority 2004, published 2006).

The series is classed as physicochemical. The text has this: Minor species are also detected by UV/visible spectroscopy in the HPLC of the complex and become more significant over time. The ^13C{^1H} NMR spectrum (d6-DMSO) of the complex was fully assigned for the α-anomer, and partially assigned for the β-anomer (as reflected above in TABLE 1).

Take “Tricarbonyl (N-(2′-Hydroxybenzyl)-2-amino-2-deoxy-D-glucose) rhenium(I) [[(L^2)Re(CO)3]]”: the stability in solution entry is reported as “become visibly brown”.
